# Data as given in patent US20250177398A1, “CARBONIC ANHYDRASE ENZYMES FOR REGULATING MAST CELL HEMATOPOIESIS AND TYPE 2 INFLAMMATION” (RUTGERS, THE STATE UNIVERSITY OF NEW JERSEY, priority 2015, published 2025).
# Key:
# Format in all cases: in vivo, mouse
# Trichinella spiralis = Trichinella spiralis infection of mice; conditions: T. spiralis-infected mice
# Experimental: (§1) Methods for maintenance, recovery, infection and isolation of Trichinella larvae were performed as previously described (Urban, et al., 2000. J Immunol 164:2046-2052). Mice were infected with 500 Trichinella muscle larvae by oral gavage and were treated with vehicle (1:5 DMSO to PBS) or 2-3 mg of MZ i.p. daily; mice were sacrificed between 10-11 days post-infection. At necropsy, single cell suspensions of mLNs and spleens were prepared as previously described (Giacomin, et al., 2012. Journal of immunology (Baltimore, Md.: 1950) 189:4371-4378) for basophil and mast cell analysis. Blood was collected and serum was isolated for analysis of Mcpt1 and IgE. Sections (1 cm) of small intestine (jejunum) were collected for real-time PCR and histological analysis. Remaining sections of small intestine were slit lengthwise, rinsed in PBS, and placed in HBSS for 4 hours at 37° C. and adult worms were quantified by microscopic analysis as previously described (Urban, et al., 2000. J Immunol 164:2046-2052). Rag1^−/− mice were injected (i.p.) with a combination of recombinant IL-3 (1 μg) and α-IL-3 antibody (0.5 μg) (BioLegend: clone MP2-8F8) in 200 μl PBS every 3 days for 7-10 days. IL-3C-treated mice were treated with MZ (2 mg) or vehicle (DMSO) every day.
# (§2) RNA from sections of small intestine was isolated by homogenization in TRIzol (Invitrogen) followed by phenol-chloroform extraction and isopropanol precipitation. cDNA was generated per standard protocol with Superscript reverse transcriptase (Invitrogen) and used as input for real-time PCR. Real-time data were analyzed using the ΔΔCT method using SYBR Green chemistry (Applied Biosystems) with β-actin serving as the endogenous housekeeping gene. All reactions were run on an ABI 7500 Fast Real-Time PCR System (Applied Biosystems). Samples were normalized to naïve controls. The following QuantiTech primer assays from Qiagen were used: Mcpt1 (QT00157864), IL-4 (QT00160678), IL-9 (QT00107555), Arg1 (QT00134288), Retnla (QT00254359), Car1 (QT01058113) and Car2 (QT00494592).
# (§3) Single cell suspensions were made from mesenteric, or skin draining lymph nodes. Lymph node cells were cultured in RPMI complete medium and treated with and without anti-CD3 (BD Pharmingen: clone 145-2C11) and anti-CD28 antibodies (BD Pharmingen: clone 37.51) for 72 hours. Standard sandwich ELISA (eBioscience) was performed to measure IL-4 (clones 11B11 and BVD6-24G2), IL-5 (clones TRFK5 and TRFK4) and IL-13 (clones eBio13A and eBio1316H) levels in the cell-free supernatants. Serum quantities of Mcpt1 and IgE were measured by commercial sandwich ELISA kits (BD Biosciences, eBioscience).
# [1] = system: atopic dermatitis (AD)-like disease; assay: MC903-induced atopic dermatitis-like disease; conditions: MC903-treated mice, 2-3 mg MZ i.p. daily
# Experimental: as §3
# Mice were treated once a day topically with 2 nmol of MC903 (calcipotriol, Tocris Bioscience) in 20 μl of ethanol for 6 days as described previously (Kim, et al., 2013. Sci Transl Med 5: 170ra116). MC903-treated mice were treated with vehicle (1:5 DMSO to PBS) or 2-3 mg of MZ i.p. daily and sacrificed on day 7 post-treatment.
# [2] = system: IL-3C-induced intestinal mast cell responses and peripheral basophilia; assay: IL-3C treatment of Rag1-deficient mice; conditions: MZ 2 mg every day (FIG. 3G)
# Experimental: as §1
# [3] = system: food allergy-induced mast cell responses; assay: Food allergy-like disease (OVA sensitization and challenge); conditions: OVA sensitized and challenged mice
# Experimental: as §2, with “Retnla” left out, “(QT00494592). Single cell suspensions were made from mesenteric, or skin draining lymph nodes. Lymph node cells were cultured in RPMI complete medium and treated with and without anti-CD3 (BD Pharmingen: clone 145-2C11) and anti-CD28 antibodies (BD Pharmingen: clone 37.51) for 72 hours. Standard sandwich ELISA (eBioscience) was performed to measure IL-4 (clones 11B11 and BVD6-24G2), IL-5 (clones TRFK5 and TRFK4) and IL-13 (clones eBio13A and eBio1316H) levels in the cell-free supernatants. Serum quantities of Mcpt1 and IgE were measured by commercial sandwich ELISA kits (BD Biosciences, eBioscience). […]” for “(QT00494592).”
smiles,measurement,setting,value
"CC(=O)/N=c1/sc(S(N)(=O)=O)nn1C [MZ, methazolamide]","type 2 responses (mLN cell IL-4, IL-5, IL-13; intestinal il4, il9, arg1, retnla; serum IgE)",Trichinella spiralis; 2-3 mg MZ i.p. daily (FIG. 3A-C),significantly reduced
same,worms recovered from the intestines (worm burden),Trichinella spiralis; 2-3 mg MZ i.p. daily (FIG. 3D),significantly more
same,infection-induced basophilia (splenic basophils),Trichinella spiralis; 2-3 mg MZ i.p. daily (FIGS. 2F-2G),no effect
same,"mast cell responses (mLN mast cells, serum Mcpt1, intestinal mcpt1 expression, intestinal mast cells by histology)","Trichinella spiralis; 2-3 mg MZ i.p. daily, day 10-11 (FIGS. 2A-2E)",significantly reduced
same,"type 2 cytokine production (skin-draining LN IL-4, IL-5, IL-13) vs controls",[1]; day 7 (FIG. 3E),equivalent or significantly increased
same,AD-like pathology vs controls,[1]; day 7 (FIG. 3F),similar
same,IL-3C-induced basophilia,[2],no effect
same,intestinal mast cell responses,[2],significantly reduced
same,"mast cell responses (serum Mcpt1, intestinal mcpt1 expression, intestinal mast cells by histology)",[3]; 2-3 mg MZ i.p. daily (FIG. 4A-D),significantly decreased
same,serum IgE levels,[3]; 2-3 mg MZ i.p. daily (FIG. 4E),significantly increased
